Test results from patent US8815535B2, “Disk diffusion assay for oritavancin” (The Medicines Company, priority 2011, dated 2014).
In brackets after ≈: the same amount, converted by molar mass. Like-named read-outs stand apart in the source and are kept apart here.

Columns and labels:
[1] = tested on: VISA Mu50 (ATCC 700699); experiment: Disk diffusion assay (zone of inhibition); assay type: cell-based; details: Staphylococcus aureus, Oxoid disks, 20 μl of 18 mg/ml oritavancin in 5% P80, stored 30 days at room temperature, prediffusion 6 hours at 4° C., read-out: Inhibition zone diameter
[2] = tested on: S. aureus isolates; experiment: Broth microdilution (BMD) MIC, panel of isolates; assay type: cell-based; details: Staphylococcus aureus, wild-type susceptibility to oritavancin
Description: To date, only the broth microdilution (BMD) minimal inhibitory concentration (MIC) test is a reference method accepted by the Clinical Laboratory Standards Institute (CLSI) for use in determining the susceptibility of a bacterial isolate to oritavancin (Methods for Dilution Antimicrobial Susceptibility Tests for Bacteria That Grow Aerobically; Approved Standard, CLSI document M7-A8, 8th ed. Clinical and Laboratory Standards Institute, Wayne, Pa. 2009; Performance Standards for Antimicrobial Susceptibility Testing; Eighteenth Informational Supplement, CLSI document M100-S18, 7th ed. Clinical and Laboratory Standards Institute, Wayne, Pa. 2008).

[3] = tested on: VISA Mu50 (ATCC 700699); experiment: Disk diffusion assay (zone of inhibition); assay type: cell-based, Staphylococcus aureus; details: for zone of inhibition at 360 µg/disc: ATCC 700699; for zone of inhibition at 100 µg/disc: 100 μg in 4% P80/Span 80 (1:1); for zone of inhibition at 200 µg/disc: 200 μg in 4% P80/Span 80 (1:1)
Description: The study was designed to identify conditions that improve oritavancin diffusion in agar and consequently yield a zone diameter ≧15 mm for the CLSI quality control strain MSSA ATCC 25923. Excipients that increased the disk diffusion of oritavancin in agar relative to disks containing only oritavancin were identified and selected for further study. […] A prediffusion step at room temperature was introduced to maximize oritavancin diffusion prior to initiation of bacterial growth. […] Plates were then incubated overnight at 37° C. Zone diameters around the disks in which bacterial growth was inhibited were measured with a ruler and reported in millimeters.
(§1) Ethanol-sterilized Whatman paper disks (6 mm diameter) were allowed to dry then impregnated with 20 microliters of oritavancin solution containing total amounts ranging from 90 to 360 micrograms. Disks were allowed to dry at room temperature for various times prior to use.
Bacterial suspensions were prepared and adjusted to an optical density of 0.1 at 600 nm. Standard cation-adjusted Mueller Hinton agar plates (90 mm diameter) were seeded with bacterial suspensions by initially swabbing the center of plate then moving outward towards the edge. The plate was swabbed a second time, perpendicular to the orientation of the first swab. […] After 3 hours, two additional disks were placed on the other half of the plate then the plate was incubated overnight at 37° C. Zone diameters were measured with a ruler and reported in millimeters.
(§2) Oritavancin powder was dissolved in freshly-prepared solutions of the indicated excipients at concentrations of 0.625, 1.25, 2.5, 5, and 10 mg/ml (adjusted for potency based on lot 875561L00 purity of 83.1%) by vortexing for a minimum of 5 minutes. Oritavancin solutions in the various excipients, while not visually clear, were free from any apparent particulates as assessed visually. Sterile Oxoid blank disks were impregnated with 20 μl of these oritavancin solutions, resulting in oritavancin disk loads ranging from 12.5 to 200 μg. Unless indicated otherwise, disks were allowed to dry overnight at room temperature prior to use.
(§3) Bacterial suspensions from isolated colonies on overnight cation-adjusted Mueller Hinton agar plates were prepared in sterile saline and adjusted to an optical density of 0.1 at 600 nm Standard cation-adjusted Mueller Hinton agar plates (90 mm diameter) were seeded with bacterial suspensions by initially swabbing the center of plate then moving outward. Swabbing was continued at a right angle and then at an oblique angle to the first and second swabs. Disks were placed upon the seeded plates with sterile forceps. Plates were then incubated overnight at 37° C. and inhibition zone diameters were measured with a ruler and reported in millimeters.

[4] = tested on: S. aureus isolates; experiment: Disk diffusion assay, panel of isolates; assay type: cell-based, Staphylococcus aureus
Description: The study was designed to identify conditions that improve oritavancin diffusion in agar and consequently yield a zone diameter ≧15 mm for the CLSI quality control strain MSSA ATCC 25923. Excipients that increased the disk diffusion of oritavancin in agar relative to disks containing only oritavancin were identified and selected for further study. […] A prediffusion step at room temperature was introduced to maximize oritavancin diffusion prior to initiation of bacterial growth. In this step, the antimicrobial disks were placed on agar plates seeded with a bacterial isolate and incubated at room temperature for 3 hours. Plates were then incubated overnight at 37° C. Zone diameters around the disks in which bacterial growth was inhibited were measured with a ruler and reported in millimeters.
as §1
Bacterial suspensions were prepared and adjusted to an optical density of 0.1 at 600 nm. Standard cation-adjusted Mueller Hinton agar plates (90 mm diameter) were seeded with bacterial suspensions by initially swabbing the center of plate then moving outward towards the edge. The plate was swabbed a second time, perpendicular to the orientation of the first swab. To assess the impact of prediffusion on diameter of inhibition zones, two disks were immediately placed on one half of the plate and the plate was incubated for 3 hours at room temperature. After 3 hours, two additional disks were placed on the other half of the plate then the plate was incubated overnight at 37° C. Zone diameters were measured with a ruler and reported in millimeters.
as §2, §3

[5] = tested on: MRSA Q670505; experiment: Disk diffusion assay (zone of inhibition); assay type: cell-based, Staphylococcus aureus; details: 20 μl of 1.25 mg/ml in 4% P80/Span 80 (1:1), calcium alginate swabs, dried overnight, duplicate
Protocol: as §2, §3

[6] = tested on: MRSA V257345; experiment: Disk diffusion assay (zone of inhibition); assay type: cell-based, Staphylococcus aureus; details: 20 μl of 1.25 mg/ml in 4% P80/Span 80 (1:1), calcium alginate swabs, dried overnight, duplicate
Protocol: as §2, §3

[7] = tested on: MSSA U933236; experiment: Disk diffusion assay (zone of inhibition); assay type: cell-based, Staphylococcus aureus; details: 20 μl of 1.25 mg/ml in 4% P80/Span 80 (1:1), calcium alginate swabs, dried overnight, duplicate
Protocol: as §2, §3

[8] = tested on: MRSA U933237; experiment: Disk diffusion assay (zone of inhibition); assay type: cell-based, Staphylococcus aureus; details: 20 μl of 1.25 mg/ml in 4% P80/Span 80 (1:1), calcium alginate swabs, dried overnight, duplicate
Protocol: as §2, §3

[9] = tested on: MRSA U260847; experiment: Disk diffusion assay (zone of inhibition); assay type: cell-based, Staphylococcus aureus; details: 20 μl of 1.25 mg/ml in 4% P80/Span 80 (1:1), calcium alginate swabs, dried overnight, duplicate
Protocol: as §2, §3

[10] = Staphylococcus aureus, Mu50, calcium alginate swab, dried overnight, read-out: Inhibition zone diameter
[11] = Staphylococcus aureus, Mu50, cotton swab, dried overnight, estimate of diameter
[12] = Staphylococcus aureus, MRSA, read-out: Inhibition zone diameter

SMILES: CN[C@H](CC(C)C)C(=O)N[C@H]1C(=O)N[C@@H](CC(N)=O)C(=O)N[C@H]2C(=O)N[C@H]3C(=O)N[C@H](C(=O)N[C@H](C(=O)O)c4cc(O)cc(O)c4-c4cc3ccc4O)[C@H](O[C@H]3C[C@](C)(N)[C@@H](O)[C@H](C)O3)c3ccc(c(Cl)c3)Oc3cc2cc(c3O[C@@H]2O[C@H](CO)[C@@H](O)[C@H](O)[C@H]2O[C@H]2C[C@](C)(NCc3ccc(-c4ccc(Cl)cc4)cc3)[C@@H](O)[C@H](C)O2)Oc2ccc(cc2Cl)[C@H]1O [oritavancin, N-(4-(4-chlorophenyl)benzyl)A82846B]
- zone of inhibition at 18000 µg/mL [1]: 13 mm
- MIC90 [2]: 0.12 µg/mL (≈ 0.0669 µM)
- Inhibition zone diameter ([3]; Mu50, 12.5 μg in 4% P80/Span 80 (1:1), calcium alginate swab, dried overnight): no zone
- Inhibition zone diameter ([3]; Mu50, 12.5 μg in 4% P80/Span 80 (1:1), cotton swab, dried overnight, estimate of diameter): no zone
- Inhibition zone diameter ([3]; Mu50, 25 μg (20 μl of 1.25 mg/ml) in 4% P80/Span 80 (1:1), calcium alginate swab, dried overnight): no zone
- Inhibition zone diameter ([3]; Mu50, 20 μl of 1.25 mg/ml oritavancin in 5% Brij 30): no zone
- zone of inhibition at 360 µg/disc ([3]; Staphylococcus aureus, 3 h, 360 μg oritavancin, excipient 10% HPCD, disks made same day, 3 h prediffusion, average of 2 disks, read-out: Average zone diameter): 17.3 mm
- zone of inhibition at 360 µg/disc ([3]; Staphylococcus aureus, 192 h, 360 μg in 5% P80, Experiment 2, disks stored 8 days, no prediffusion, read-out: Zone diameter (mm ± SD)): 13 mm
- zone of inhibition at 360 µg/disc ([3]; Staphylococcus aureus, 336 h, 360 μg in 5% P80, Experiment 1, disks stored 14 days, no prediffusion, read-out: Zone diameter (mm ± SD)): 13.5 ± 0.7 mm
- zone of inhibition at 360 µg/disc ([3]; Staphylococcus aureus, 360 μg in 5% P80, Average of experiments, no prediffusion, read-out: Zone diameter (mm ± SD)): 13.3 ± 0.5 mm
- zone of inhibition at 360 µg/disc ([3]; Staphylococcus aureus, 360 μg in 5% P80, Average of experiments, prediffusion, read-out: Zone diameter (mm ± SD)): 14.3 ± 0.3 mm
- zone of inhibition at 360 µg/disc ([3]; Staphylococcus aureus, 360 μg in 5% P80, Experiment 1, disks stored 14 days, 3 h prediffusion at room temperature, read-out: Zone diameter (mm ± SD)): 14.5 mm
- zone of inhibition at 360 µg/disc ([3]; Staphylococcus aureus, 360 μg in 5% P80, Experiment 2, disks stored 8 days, 3 h prediffusion at room temperature, read-out: Zone diameter (mm ± SD)): 14 mm
- zone of inhibition at 360 µg/disc ([3]; Staphylococcus aureus, 360 μg oritavancin, excipient 5% P80, disks stored 5 days at room temperature, 3 h prediffusion, average of 2 disks, read-out: Average zone diameter): 15 mm
- zone of inhibition at 25 µg/disc ([3]; Staphylococcus aureus, Mu50, 25 μg in 4% P80/Span 80 (1:1), cotton swab, dried overnight, estimate of diameter): 7 mm
- zone of inhibition at 50 µg/disc ([3]; Staphylococcus aureus, Mu50, 50 μg in 4% P80/Span 80 (1:1), calcium alginate swab, dried overnight, read-out: Inhibition zone diameter): 7 mm
- zone of inhibition at 50 µg/disc ([3]; Staphylococcus aureus, Mu50, 50 μg in 4% P80/Span 80 (1:1), cotton swab, dried overnight, estimate of diameter): 10 mm
- zone of inhibition at 50 µg/disc ([3]; Staphylococcus aureus, Mu50, 50 μg, 4% P80/Span 80 ratio 50:50, dried overnight, estimate of diameter): 10 mm
- zone of inhibition at 50 µg/disc ([3]; Staphylococcus aureus, Mu50, 50 μg, 4% P80/Span 80 ratio 60:40, dried overnight, estimate of diameter): 11 mm
- zone of inhibition at 50 µg/disc ([3]; Staphylococcus aureus, Mu50, 50 μg, 4% P80/Span 80 ratio 70:30, dried overnight, estimate of diameter): 12 mm
- zone of inhibition at 50 µg/disc ([3]; Staphylococcus aureus, Mu50, 50 μg, 4% P80/Span 80 ratio 80:20, dried overnight, estimate of diameter): 12 mm
- zone of inhibition at 50 µg/disc ([3]; Staphylococcus aureus, Mu50, 50 μg, 4% P80/Span 80 ratio 90:10, dried overnight, estimate of diameter): 12 mm
- zone of inhibition at 100 µg/disc [3, 10]: 8 mm
- zone of inhibition at 100 µg/disc [3, 11]: 11 mm
- zone of inhibition at 200 µg/disc [3, 10]: 8 mm
- zone of inhibition at 200 µg/disc [3, 11]: 10 mm
- zone of inhibition at 1250 µg/mL ([3]; Staphylococcus aureus, Mu50, 20 μl of 1.25 mg/ml oritavancin in 1% poly(ethylene glycol) sorbitol hexaoleate, read-out: Inhibition zone diameter): 8 mm
- zone of inhibition at 1250 µg/mL ([3]; Staphylococcus aureus, Mu50, 20 μl of 1.25 mg/ml oritavancin in 5% Merpol SE, read-out: Inhibition zone diameter): 9 mm
- Zone diameter smaller for the two reduced-susceptibility isolates compared to MSSA and MRSA isolates exhibiting the same BMD MICs ([4]; 360 μg in 5% P80): approximately 2 mm
- Average increase of zone diameter by prediffusion ([4]; MSSA and MRSA strains, 360 μg in 5% P80): approximately 2.5 mm
- zone of inhibition at 1250 µg/mL ([4]; Staphylococcus aureus, 19 wild-type clinical isolates, 20 μl of 1.25 mg/ml in 4% P80/Span 80 (1:1), calcium alginate swabs, read-out: Inhibition zone diameters): 20 to 24 mm
- Average increase of zone diameter by prediffusion ([4]; VISA and oritavancin reduced-susceptibility isolates, 360 μg in 5% P80): approximately 1.1 mm
- Zone diameters ([4]; many S. aureus strains, different combinations of the alterations to the traditional assay): > 15 mm
- Inhibition zone diameter [5]: 18, 18 mm
- zone of inhibition at 1250 µg/mL [5, 12]: 18 mm
- Inhibition zone diameter [6]: 22 mm
- zone of inhibition at 1250 µg/mL [6, 12]: 21 mm
- Inhibition zone diameter [7]: 22 mm
- zone of inhibition at 1250 µg/mL ([7]; Staphylococcus aureus, MSSA, read-out: Inhibition zone diameter): 21 mm
- Inhibition zone diameter [8]: 22 mm
- zone of inhibition at 1250 µg/mL [8, 12]: 21 mm
- Inhibition zone diameter [9]: 22 mm
- zone of inhibition at 1250 µg/mL [9, 12]: 21 mm
